Data as given in patent publication US8735406B2, “8-oxodihydropurine derivative” (Dainippon Sumitomo Pharma Co., Ltd., priority 2009, dated 2014).
Read-outs that look alike come from different tables or passages of the source.

Biological target: T1, FAAH (Rattus norvegicus, UniProt P97612)
T1 construct: Preparation of Rat Brain Membranes Preparations (FAAH Enzyme Solution); from tissue; host or cells: rat cerebrum (brain membrane preparation)
T1 sequence (P97612 1-579): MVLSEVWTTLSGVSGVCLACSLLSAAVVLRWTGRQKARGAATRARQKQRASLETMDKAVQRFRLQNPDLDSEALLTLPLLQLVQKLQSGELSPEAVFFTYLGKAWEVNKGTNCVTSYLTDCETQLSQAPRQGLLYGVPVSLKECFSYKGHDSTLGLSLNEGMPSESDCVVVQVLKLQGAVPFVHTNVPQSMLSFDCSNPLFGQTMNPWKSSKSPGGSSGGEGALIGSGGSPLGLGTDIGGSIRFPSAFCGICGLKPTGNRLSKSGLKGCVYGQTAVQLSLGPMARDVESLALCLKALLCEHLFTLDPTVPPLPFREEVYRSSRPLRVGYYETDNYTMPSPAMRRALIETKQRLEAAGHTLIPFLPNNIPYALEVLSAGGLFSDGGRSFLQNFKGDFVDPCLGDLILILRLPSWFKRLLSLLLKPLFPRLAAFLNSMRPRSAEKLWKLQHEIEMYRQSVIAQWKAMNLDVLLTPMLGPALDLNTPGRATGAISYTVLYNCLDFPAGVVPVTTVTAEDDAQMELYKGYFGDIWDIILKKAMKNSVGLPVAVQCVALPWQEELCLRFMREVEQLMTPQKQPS
Experiment: Determination of FAAH inhibitory activity in rat (rat brain membrane preparations, [3H]-anandamide hydrolysis)
Format: biochemical
Procedure, shortened: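 Compounds tested from 0.1 nM to 1 μM to derive IC50 against FAAH hydrolysis in rat brain membrane preparations (100 μg/mL). A 10-min 37 °C preincubation was followed by 10 min with [3H]-anandamide (2 nM) mixed with 2 μM unlabelled anandamide. Radioactive ethanolamine was extracted into the water/methanol layer and counted.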

[1] = rat brain membrane preparations, 100 nM test substance, read-out: FAAH Inhibition, Inhibition Rate at 100 nM
[2] = rat brain membrane preparations, test substance 0.1 nM to 1 μM, read-out: FAAH Inhibition IC50
[3] = read-out: FAAH Inhibition, Inhibition Rate at 100 nM

| Compound | inhibition at 0.1 µM [1] [%] | IC50 [2] [nM] | further results |
| --- | --- | --- | --- |
| COCCN(C)C(=O)n1c(=O)n(C)c2nc(-c3cccc(OC)c3)ncc21 [Example 59, N-(2-Methoxyethyl)-2-(3-methoxyphenyl)-N,9-dimethyl-8-oxo-8,9-dihydro-7H-purine-7-carboxamide] | 99 | 26 |  |
| COCc1ncc2c(n1)n(C)c(=O)n2C(=O)N1CC[C@H](Oc2ccccc2C)C1 [Example 486, 2-(Methoxymethyl)-9-methyl-7-{[(3S)-3-(2-methylphenoxy)pyrrolidin-1-yl]carbonyl}-7,9-dihydro-8H-purine-8-one] | 113 | 2 |  |
| Cn1c(=O)n(C(=O)N2CCC2)c2cnc(COc3cccc(F)c3)nc21 [compound 405] |  |  | IC50 (FAAH Inhibition IC50, rat brain membrane preparations, test substance 0.1 nM to 1 μM): 98 nM; inhibition at 0.1 µM [3]: 97% |
| COCCc1ncc2c(n1)n(C)c(=O)n2C(=O)N1CC(c2cccc(C(F)(F)F)c2)C1 [compound 393] | 101 | 10 |  |
| CC(C)Cn1c(=O)n(C(=O)N2CCCC2)c2cnc(-c3ccccc3)nc21 [Example 307] | 96 | 41 |  |
| CCc1ccc(CCc2ncc3c(n2)n(C(=O)N(C)C)c(=O)n3C)cc1 [compound 503] | 101 | 10 |  |
| COCc1ncc2c(n1)n(C)c(=O)n2C(=O)N1CC[C@H](Oc2ccccc2)C1 [Example 477] | 88 | 26 |  |
| COCc1ncc2c(n1)n(C)c(=O)n2C(=O)N1CC(c2ccc(OC)cc2)C1 [compound 450] | 89 | 20 |  |
| CCCOc1ccc(CCc2ncc3c(n2)n(C(=O)N2CCC2)c(=O)n3C)cc1 [compound 564] | 98 | 9 |  |
| COc1cccc(-c2ncc3c(n2)n(C)c(=O)n3C(=O)N(C)CCc2ccccn2)c1 [Example 114, 2-(3-Methoxyphenyl)-N,9-dimethyl-8-oxo-N-[2-(pyridin-2-yl)ethyl]-8,9-dihydro-7H-purine-7-carboxamide] | 103 | 2 |  |
| Cc1ccccc1CCc1ncc2c(n1)n(C(=O)N1CCC1)c(=O)n2C [compound 591] | 57 | 75 |  |
| Cn1c(=O)n(C(=O)N2CCCC2)c2cnc(-c3ccc(F)cc3)nc21 [Example 168, 2-(4-Fluorophenyl)-9-methyl-7-(pyrrolidin-1-ylcarbonyl)-7,9-dihydro-8H-purine-8-one] | 100 | 6 |  |
| COc1cccc(-c2ncc3c(n2)n(C)c(=O)n3C(=O)N2CCN(c3ccc(F)cc3)CC2)c1 [Example 136, 7-{[4-(4-Fluorophenyl)piperazin-1-yl]carbonyl}-2-(3-methoxyphenyl)-9-methyl-7,9-dihydro-8H-purine-8-one] | 99 | 3 |  |
| COc1cccc(-c2ncc3c(n2)n(C)c(=O)n3C(=O)N(C)Cc2cccc(C(F)(F)F)c2)c1 [Example 82, 2-(3-Methoxyphenyl)-N,9-dimethyl-8-oxo-N-[3-(trifluoromethyl)benzyl]-8,9-dihydro-7H-purine-7-carboxamide] | 90 | 36 |  |
| Cn1c(=O)n(C(=O)N2CCCC2)c2cnc(Cc3cccc(Cl)c3)nc21 [Example 19, 2-(3-Chlorobenzyl)-9-methyl-7-(pyrrolidin-1-ylcarbonyl)-7,9-dihydro-8H-purine-8-one] | 99 | 9 |  |
| CCc1cccc(OCc2ncc3c(n2)n(C(=O)N2CCC2)c(=O)n3C)c1 [Example 418] | 75 | 35 |  |
| Cn1c(=O)n(C(=O)N2CCC2)c2cnc(Cc3ccccc3Cl)nc21 [compound 377] | 82 | 39 |  |

| Compound | inhibition at 0.1 µM [1] [%] | IC50 [2] [nM] | further results |
| --- | --- | --- | --- |
| CCN(C)C(=O)n1c(=O)n(C)c2nc(Cc3ccc(C(F)(F)F)cc3)ncc21 [compound 283] | 59 | 74 |  |
| COc1cccc(-c2ncc3c(n2)n(C)c(=O)n3C(=O)N(C)CCc2ccc(Cl)cc2)c1 [Example 69, N-[2-(4-Chlorophenyl)ethyl]-2-(3-methoxyphenyl)-N,9-dimethyl-8-oxo-8,9-dihydro-7H-purine-7-carboxamide] |  | 2 | inhibition at 0.1 µM [3]: 101% |
| CN(C)C(=O)n1c(=O)n(C)c2cnc(CCc3cccc(C(F)F)c3)nc21 [compound 537] | 41 | 153 |  |
| COCCc1ncc2c(n1)n(C)c(=O)n2C(=O)N1CC(c2ccc(F)cc2)C1 [compound 390] | 120 | 1 |  |
| CCN(C)C(=O)n1c(=O)n(C)c2nc(C3CCCCC3)ncc21 [Example 162, 2-Cyclohexyl-N-ethyl-N,9-dimethyl-8-oxo-8,9-dihydro-7H-purine-7-carboxamide] | 72 | 38 |  |
| COCc1ncc2c(n1)n(C)c(=O)n2C(=O)N1CC(c2ccc(F)c(C)c2)C1 [Example 455, 7-{[3-(4-Fluoro-3-methylphenyl)azetidin-1-yl]carbonyl}-2-(methoxymethyl)-9-methyl-7,9-dihydro-8H-purine-8-one] | 104 | 1 |  |
| Cc1ccc(-c2ncc3c(n2)n(C(=O)N2CCCC2)c(=O)n3C)cc1 [Example 229, 7-Methyl-2-(4-methylphenyl)-9-(pyrrolidin-1-ylcarbonyl)-7,9-dihydro-8H-purine-8-one] | 90 | 53 |  |
| COCc1ncc2c(n1)n(C)c(=O)n2C(=O)N1CC[C@@H](Oc2cccc(C)c2)C1 [Example 475] | 46 |  |  |
| CN(C)C(=O)n1c(=O)n(C)c2cnc(-c3cccc(OCC(F)F)c3)nc21 [Example 335, 2-[3-(2,2-Difluoroethoxy)phenyl]-N,N,7-trimethyl-8-oxo-7,8-dihydro-9H-purine-9-carboxamide] | 74 | 33 |  |
| CCN(C)C(=O)n1c(=O)n(C)c2nc(Cc3ccc(C)cc3)ncc21 [Example 281, N-Ethyl-N,9-dimethyl-2-(4-methylbenzyl)-8-oxo-8,9-dihydro-7H-purine-7-carboxamide] | 98 | 14 |  |
| COc1ccccc1-c1ncc2c(n1)n(C)c(=O)n2C(=O)N1CCCC1 [compound 172] | 67 | 69 |  |
| CCCc1ncc2c(n1)n(C(=O)N1CC(c3ccccc3)C1)c(=O)n2C [Example 637] |  |  | inhibition at 0.1 µM (at 100 nM, rat brain membrane preparations, read-out: FAAH Inhibition Inhibition Rate at 100 nM): 102%; IC50 (rat brain membrane preparations, read-out: FAAH Inhibition IC50): 7 nM |
| COCc1ncc2c(n1)n(C)c(=O)n2C(=O)N1CC[C@H](Oc2ccc(C)cc2)C1 [Example 484, 2-(Methoxymethyl)-9-methyl-7-{[(3S)-3-(4-methylphenoxy)pyrrolidin-1-yl]carbonyl}-7,9-dihydro-8H-purine-8-one] | 86 | 9 |  |
| Cn1c(=O)n(C(=O)N2CCC2)c2nc(CCc3ccccc3F)ncc21 [Example 583, 9-(Azetidin-1-ylcarbonyl)-2-[2-(2-fluorophenyl)ethyl]-7-methyl-7,9-dihydro-8H-purine-8-one] | 87 | 94 |  |
| CCCCc1ncc2c(n1)n(C)c(=O)n2C(=O)N1CCCC1 [Example 274, 2-Butyl-9-methyl-7-(pyrrolidin-1-ylcarbonyl)-7,9-dihydro-8H-purine-8-one] | 98 | 10 |  |
| COc1cccc(Cc2ncc3c(n2)n(C)c(=O)n3C(=O)N2CCC2)c1 [Example 375, 7-(Azetidin-1-ylcarbonyl)-2-(3-methoxybenzyl)-9-methyl-7,9-dihydro-8H-purine-8-one] | 94 | 24 |  |
